Our source for the IC50 values is patent US12371454B2, “Cyclic peptide compound having Kras inhibitory action” (priority 2019, dated 2025).

The structures appear in SMILES notation. Starred links: 1 amine or outer side, 2 acyl side, 3 side chain; linkers in the order of their positions; H or OH if unused. Positions of bridges follow the written chain, without caps; N, C: chain ends. Non-standard residues stand in square brackets, D forms with d. Residues, ends and D or L forms follow the SMILES beside them. *: point of attachment. hPhe(3-Cl-4-CF3) = N[C@@H](CCc1ccc(C(F)(F)F)c(Cl)c1)C(=O)O; hPhe(3-F,4-CF3) = N[C@@H](CCc1ccc(C(F)(F)F)c(F)c1)C(=O)O; Phe(2-CF3) = N[C@@H](Cc1ccccc1C(F)(F)F)C(=O)O; Thiomorpholino(1,1-dioxo) = O=S1(=O)CCN(*)CC1; NMe3Pal(6-Me) = CN[C@@H](Cc1ccc(C)nc1)C(=O)O; NMePhe(4-Cl) = CN[C@@H](Cc1ccc(Cl)cc1)C(=O)O; NMePhe(4-Me) = CN[C@@H](Cc1ccc(C)cc1)C(=O)O; hPhe(4-Cl) = N[C@@H](CCc1ccc(Cl)cc1)C(=O)O; NMedβ3hAla = C[C@H](CC(=O)[*:2])N(C)[*:1]; NMeGly(cPent) = CN[C@H](C(=O)O)C1CCCC1; Phe(3-I) = N[C@@H](Cc1cccc(I)c1)C(=O)O; NMeCha = CN[C@@H](CC1CCCCC1)C(=O)O; Azetidine(3,3-F2) = FC1(F)CN(*)C1; N(isopentyl)Gly = CC(C)CCNCC(=O)O; NMeChg = CN[C@H](C(=O)O)C1CCCCC1; NMeF = CN[C@@H](Cc1ccccc1)C(=O)O; N(CH2CH2)2CF2 = FC1(F)CCN(*)CC1; NMeD = CN[C@@H](CC(=O)O)C(=O)O; NMeL = CN[C@@H](CC(C)C)C(=O)O; NMeV = CN[C@H](C(=O)O)C(C)C; d(β3hA) = C[C@@H](N)CC(=O)O; NMeA = CN[C@@H](C)C(=O)O; NMeAib = CNC(C)(C)C(=O)O; Piperidide = C1CCN(*)CC1; Ac5c = NC1(C(=O)O)CCCC1; Aze = O=C(O)[C@@H]1CCN1; Thp = NC1(C(=O)O)CCOCC1; Isopentyl = CC(C)CC*; Sar = CNCC(=O)O

This experiment has as its target T1, Kras and SOS1 (biotin-tagged human Kras loaded with GDP, His-tagged human SOS1) (Homo sapiens, UniProt P01116, G12D).
T1 construct: made in house; host or cells: E. coli (stated for Kras only)
Briefly: Protein-protein interaction inhibition between Kras and SOS1 (KrasGl2D-SOS PPI) using AlphaScreen. It counts as binding. The following applies: AlphaScreen; biotin-tagged human Kras loaded with GDP, His-tagged human SOS1; read-out: KRAS G12D-SOS PPI IC50. The method in brief: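 Read-out is acceptor-bead light at 520-620 nm, arising when 680 nm-irradiated nickel donor beads pass singlet oxygen to streptavidin acceptors. The bead pair links His-tagged SOS1 with biotin-tagged, GDP-bound Kras from E. coli.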

T1 sequence (P01116 1-188 isoform P01116-2 G12D): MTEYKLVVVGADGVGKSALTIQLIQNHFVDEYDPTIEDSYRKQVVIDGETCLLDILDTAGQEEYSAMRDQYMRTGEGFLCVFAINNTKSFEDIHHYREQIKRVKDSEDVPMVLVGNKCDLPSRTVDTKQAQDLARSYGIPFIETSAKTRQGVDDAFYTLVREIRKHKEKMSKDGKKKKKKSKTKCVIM

A word on the IC50: it is the midpoint of a concentration-inhibition curve. As for `CC[C@H](C)[C@@H]1NC(=O)[C@H](CC(C)C)N(C)C(=O)C[C@@H](C(=O)N2CCS(=O)(=O)CC2)N(C)C(=O)[C@H](C2CCCC2)N(C)C(=O)C2(CCCC2)NC(=O)[C@H](CC(=O)N2CCC(F)(F)CC2)N(C)C(=O)[C@H](CCc2ccc(C(F)(F)F)c(Cl)c2)NC(=O)CN(C)C(=O)[C@H](CC2CCCCC2)N(C)C(=O)[C@@H]2CCN2C(=O)[C@H](C)N(C)C1=O` [Compound 780] ([NMeL]I[NMeA][Aze][NMeCha][Sar][hPhe(3-Cl-4-CF3)][NMeD](N(CH2CH2)2CF2)[Ac5c][NMeGly(cPent)][NMeD]-{Thiomorpholino(1,1-dioxo)}; lactam N-11), the IC50 was determined as 21 nM.

As to `CC[C@H](C)[C@@H]1NC(=O)[C@H](C)N(C)C(=O)C[C@@H](C)NC(=O)[C@H](C(C)C)N(C)C(=O)[C@H](Cc2ccccc2)N(C)C(=O)[C@H](CC(C)C)N(C)C(=O)[C@H](CCc2ccc(C(F)(F)F)c(F)c2)NC(=O)CN(C)C(=O)[C@H](Cc2ccc(Cl)cc2)N(C)C(=O)[C@@H]2CCN2C(=O)CN(C)C1=O` [Compound 782] (cyclo([Aze][NMePhe(4-Cl)][Sar][hPhe(3-F,4-CF3)][NMeL][NMeF][NMeV][d(β3hA)][NMeA]I[Sar])), the 50% inhibitory concentration (IC50) stood at 21 nM.

On to `CC[C@H](C)[C@@H]1NC(=O)[C@H](CC(C)C)N(C)C(=O)C[C@@H](C(=O)N2CCCCC2)N(C)C(=O)[C@H](C2CCCCC2)N(C)C(=O)C2(CCCC2)NC(=O)[C@H](Cc2ccc(C)nc2)N(C)C(=O)[C@H](CCc2ccc(C(F)(F)F)c(Cl)c2)NC(=O)CN(C)C(=O)[C@H](CC2CCCCC2)N(C)C(=O)[C@@H]2CCN2C(=O)CN(C)C1=O` [Compound 786] ([NMeL]I[Sar][Aze][NMeCha][Sar][hPhe(3-Cl-4-CF3)][NMe3Pal(6-Me)][Ac5c][NMeChg][NMeD]-Piperidide; lactam N-11), for which the 50% inhibitory concentration (IC50) was 6 nM.

In the case of `CC[C@H](C)[C@@H]1NC(=O)[C@H](CC(C)C)N(C)C(=O)C[C@@H](C(=O)N2CCCCC2)N(C)C(=O)[C@H](CC(C)C)NC(=O)C(C)(C)N(C)C(=O)[C@H](Cc2ccccc2C(F)(F)F)NC(=O)[C@H](Cc2cccc(I)c2)NC(=O)CN(C)C(=O)[C@H](Cc2ccc(C)cc2)N(C)C(=O)[C@@H]2CCN2C(=O)CN(C)C1=O` [Compound 791] ([NMeL]I[Sar][Aze][NMePhe(4-Me)][Sar][Phe(3-I)][Phe(2-CF3)][NMeAib]L[NMeD]-Piperidide; lactam N-11), the IC50 was found to be 320 nM.

In the case of `CC[C@H](C)[C@@H]1NC(=O)[C@H](C)N(C)C(=O)C[C@@H](C(=O)N2CCCCC2)N(C)C(=O)[C@H](C(C)C)N(C)C(=O)[C@H](COC)NC(=O)[C@H](CC(=O)N2CC(F)(F)C2)N(C)C(=O)[C@H](CCc2ccc(C(F)(F)F)c(Cl)c2)NC(=O)CN(C)C(=O)[C@H](CC2CCCCC2)N(C)C(=O)CN(C)C(=O)CN(C)C1=O` [Compound 793] ([NMeA]I[Sar][Sar][NMeCha][Sar][hPhe(3-Cl-4-CF3)][NMeD](Azetidine(3,3-F2))S(Me)[NMeV][NMeD]-Piperidide; lactam N-11), the IC50 was 24 nM.

As for `CC(C)CCOC[C@@H]1NC(=O)[C@H](CC(C)C)N(C)C(=O)C[C@@H](C(=O)N2CCCCC2)N(C)C(=O)[C@H](C2CCCCC2)N(C)C(=O)C2(CCCC2)NC(=O)[C@@H]2CCCN2C(=O)[C@H](CCc2ccc(C(F)(F)F)c(Cl)c2)NC(=O)CN(C)C(=O)[C@H](CC2CCCCC2)N(C)C(=O)CN(C)C(=O)CN(C)C1=O` [Compound 794] ([NMeL]S(Isopentyl)[Sar][Sar][NMeCha][Sar][hPhe(3-Cl-4-CF3)]P[Ac5c][NMeChg][NMeD]-Piperidide; lactam N-11), the 50% inhibitory concentration (IC50) is 11 nM.

In the case of `CC[C@H](C)[C@@H]1NC(=O)[C@H](CC(C)C)N(C)C(=O)C[C@@H](C)NC(=O)[C@H](C(C)C)N(C)C(=O)C2(CCCC2)NC(=O)[C@@H]2CCCN2C(=O)[C@H](CCc2ccc(C(F)(F)F)c(Cl)c2)NC(=O)CN(C)C(=O)[C@H](CC2CCCCC2)N(C)C(=O)CN(CCC(C)C)C(=O)CN(C)C1=O` [Compound 801] (cyclo([Ac5c][NMeV][d(β3hA)][NMeL]I[Sar][N(isopentyl)Gly][NMeCha][Sar][hPhe(3-Cl-4-CF3)]P)), the concentration for half-maximal inhibition (IC50) came to 450 nM.

On to `CC[C@H](C)[C@@H]1NC(=O)[C@H](CC(C)C)N(C)C(=O)C[C@@H](C)N(C)C(=O)[C@H](CC(C)C)N(C)C(=O)C2(CCOCC2)NC(=O)[C@@H]2CCCN2C(=O)[C@H](CCc2ccc(Cl)cc2)NC(=O)CN(C)C(=O)[C@H](CC2CCCCC2)N(C)C(=O)CN(C)C(=O)CN(C)C1=O` [Compound 802] (cyclo(I[Sar][Sar][NMeCha][Sar][hPhe(4-Cl)]P[Thp][NMeL][NMedβ3hAla][NMeL])), for which the IC50 turned out to be 390 nM.
